Experimental data as given in patent US20250098678A1, “METHOD OF CONTROLLING FUNGI” (UPL CORPORATION LIMITED, priority 2022, published 2025).

Columns and labels:
Plasmopara halstedii = test: Anti-fungal activity of treated sunflower seeds against Plasmopara halstedii (seed treatment, % incidence); assay type: in vivo; details: for % Incidence: sunflower seed treatment, 12 DAS, inoculated with P. halstedii
Description: Example 1: Evaluation of Anti-Fungal Activity of Sunflower Seeds Treated with Cyazofamid Against Plasmopara halstedii One tray for each treatment was filled with perlite that was covered with two layers of watered paper. Treated seeds were placed between the layers under sterile conditions and incubated at 22° C. to 24° C., 100% relative humidity (RH) for 48 h. Zoosporangia from cotyledons of sunflower plants previously infected by an isolate of P. halstedii were removed with deionized water. The suspension was filtered through two layers of sterile cheesecloth and the inoculum concentration was adjusted to 2×10^5 zoosporangia/ml. Treated and germinated seeds were immersed in the zoosporangial suspension for 5 hours. Bioassays were then designed and conducted under controlled growth conditions. Five pots per treatment were filled with perlite and nine sunflower seeds were sown in each pot. Plants were grown at 19° C., 70-100% relative humidity and a 10 h dark/14 h light photoperiod for 12 days. The seed arrangement was made as 50 seeds/plot (pot10×10 cm). The treatments used are depicted below. [table] The % incidence of fungal disease caused by Plasmapora halstedii was observed 12 DAS (days after sowing seeds).

Pythium ultimum = test: Anti-fungal activity of treated seeds against Pythium ultimum (field trials, patch score); assay type: in vivo; details: for P. ultimum patch score: seed treatment, field trial
Description: Example 2: Evaluation of Anti-Fungal Activity of Maize Seeds Treated with Cyazofamid Against Pythium ultimum The present inventors have determined the % pathogen control of Pythium ultimum control in […] treated with cyazofamid in field trials. The treatments employed and the results have been depicted in table 3 below. [table]

Compound | % Incidence (Plasmopara halstedii; application rate 50 g/100/kg) [%] | % Incidence (Plasmopara halstedii; application rate 100 g/100/kg) [%] | P. ultimum patch score indicating the severity of the fungal disease (Pythium ultimum; compared to the untreated control, result in words) | P. ultimum patch score (Pythium ultimum; 10 g.ai/100 kg, 25 ml/100 kg seeds) [b] | P. ultimum patch score (Pythium ultimum; 20 g.ai/100 kg, 50 ml/100 kg seeds) [b] | P. ultimum patch score (Pythium ultimum; 30 g.ai/100 kg, 75 ml/100 kg seeds) [b] | P. ultimum patch score (Pythium ultimum; 50 g.ai/100 kg, 125 ml/100 kg seeds) [b] | P. ultimum patch score (Pythium ultimum; 100 g.ai/100 kg, 250 ml/100 kg seeds) [b] | % Incidence (Plasmopara halstedii; application rate 35 g/100/kg) [%] | % Incidence (Plasmopara halstedii; application rate 60 g/100/kg) [%] | occurrence of fungal disease (Plasmopara halstedii; treated sunflower seeds, result in words)
Cc1ccc(-c2c(Cl)nc(C#N)n2S(=O)(=O)N(C)C)cc1 [Cyazofamid, 4-chloro-2-cyano-N,N-dimethyl-5-p-tolylimidazole-1-sulfonamide] | 0 | 0 | significantly low | 1.5 | 1.5 | 1.5 | 1.5 | 1.3 |  |  | 
COCC(=O)N(c1c(C)cccc1C)C(C)C(=O)OC (centres unmarked) [Metalaxyl] |  |  |  |  |  |  |  |  | 53.49 | 62.24 | high
